The values that follow come from ChEMBL document CHEMBL4385653, “Design, synthesis, biological evaluation of benzoyl amide derivatives containing nitrogen heterocyclic ring as potential VEGFR-2 inhibitors” (Bioorg Med Chem, 2019).

The nature of assay [1]: Inhibition of PDGFR (unknown origin) incubated for 30 mins by enzyme immunoassay. Also on record: species or system Homo sapiens.
For assay [2], the system named is MCF7. The experiment in a line: Suppression of mitochondrial membrane potential in human MCF7 cells assessed as decrease in red fluorescent cells incubated for 12 hrs by rhodamine-123 dye based flow cytometry analysis. In kind it is functional, cell-based.
The test system of assay [3] is MCF7. Description: Suppression of mitochondrial membrane potential in human MCF7 cells assessed as red fluorescent cells level at 8 uM incubated for 12 hrs by rhodamine-123 dye based flow cytometry analysis (reference value: 99.71%). In kind it is functional.
The subject of assay [4] is MCF7. Description: Induction of apoptosis in human MCF7 cells assessed as late apoptotic cells level at 4 uM incubated for 24 hrs by Annexin V-FITC/PI double staining based flow cytometry analysis (reference value: 10.1%). In kind it is functional.
Assay [5] relates to MCF7. Description: Induction of apoptosis in human MCF7 cells assessed as viable cells level at 8 uM incubated for 24 hrs by Annexin V-FITC/PI double staining based flow cytometry analysis (reference value: 82%). In kind it is functional. (In general: A flow cytometer gives signals particle by particle.)
Assay [6] concerns MCF7. Description: Inhibition of cell migration of human MCF7 cells at 4 uM by wound healing assay. Format: functional, cell-based. To be noted: TDE = time-dependent effect.
Assay [7] relates to MCF7. Description: Induction of apoptosis in human MCF7 cells assessed as late necrotic cells level at 4 uM incubated for 24 hrs by Annexin V-FITC/PI double staining based flow cytometry analysis (reference value: 1.49%). In kind it is functional.
Assay [8] has as its system MCF7. The experiment in a line: Induction of apoptosis in human MCF7 cells assessed as late necrotic cells level at 4 uM incubated for 12 hrs by Annexin V-FITC/PI double staining based flow cytometry analysis (reference value: 6.88%). Format: functional.
The subject of assay [9] is A549. The experiment in a line: Antiproliferative activity against human A549 cells assessed as inhibition of cell proliferation incubated for 48 hrs by MTT assay. Format: functional, cell-based. To be noted: A549, 48 h.
The test system of assay [10] is MCF7. Description: Induction of apoptosis in human MCF7 cells assessed as late necrotic cells level at 4 uM incubated for 24 hrs by Annexin V-FITC/PI double staining based flow cytometry analysis (reference value: 6.88%). Format: functional.
In assay [11] the test system is MCF7. Description: Induction of apoptosis in human MCF7 cells assessed as early apoptotic cells level at 4 uM incubated for 24 hrs by Annexin V-FITC/PI double staining based flow cytometry analysis (reference value: 6.37%). Format: functional.

The term IC50 denotes the concentration at which inhibition is half-maximal.

Regarding `Cc1ccc(-n2cc(NC(=O)c3cccc(NS(=O)(=O)c4ccc(Cl)cc4)c3)cn2)cc1`, the IC50 was 14.1 µM in assay [1] and 15.6 µM in assay [9]. Further, the Activity entry in [2] was “Dose-dependent effect”; in assay [3], 62.85%; in assay [4] it was 21.4%; in [5], 41.4%; in [7], 2.62%; in [8], 0.349%. In addition, the Activity in [10] was determined as 1.14%; in assay [11], 11.9%. In assay [6], the inhibition entry was “Tde”.
